Data from US6362369B1, “Phthalic acid diamide derivatives fluorine-containing aniline compounds as starting material, agricultural and horticultural insecticides, and a method for application of the insecticides” (Nihon Nohyaku Co., Ltd., priority 1997, dated 2002).

Key:
[1] = system: diamondback moth (Plutella xylostella); assay: Insecticidal effect on diamondback moth (Test Example 1); format: in vivo; conditions: for Insecticidal effect, Test Example 1 / Insecticidal effect (Test Example 1), judged from mortality: diamondback moth; for Insecticidal effect (Test Example 1), judged from mortality: judged by the criterion of Test Example 1; for Insecticidal effect on diamondback moth (Test Example 1), judged grade: mortality judged according to the criterion shown in Test Example 1
How it was run: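 Eggs laid by adult moths on Chinese cabbage seedlings, which were immersed in test solution, air-dried and kept at 25 °C. Hatched insects counted 6 days after immersion and mortality calculated, with effect graded by criterion; triplicate groups of 10 insects.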

[2] = system: rice leafroller (Cnaphalocrocis medinalis); assay: Insecticidal effect on rice leafroller (Test Example 3); format: in vivo; conditions: 500 ppm, 25° C., humidity 70%; for Insecticidal effect, Test Example 3: rice lamina immersed; for Insecticidal effect, Test Example 3 / Insecticidal effect on rice leafroller (Test Example 3), judged grade: four days after inoculation; for Insecticidal effect (Test Example 3), judged from mortality / Insecticidal effect on rice leafroller (Test Example 3), judged grade: rice lamina dip; for Insecticidal effect (Test Example 3), judged from mortality: 4 days after inoculation; for Insecticidal effect on rice leafroller (Test Example 3), judged grade: third-instar larvae
How it was run: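 Groups of 10 third-instar larvae, in triplicate, are placed on air-dried lamina resting on wet filter paper. Incubation runs four days at 25° C with 70% humidity before survivors and dead are tallied.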

[3] = judged by the mortality criterion of Test Example 1
[4] = third-instar larvae of rice leafroller
[5] = mortality judged by criterion of Test Example 1
[6] = rice leafroller third-instar larvae

Cc1ccc(Cl)cc1NC(=O)c1cc(Cl)ccc1C(=O)NC(C)C [compound 191]
Insecticidal effect, Test Example 1 [1, 3]: A (100) | Insecticidal effect, Test Example 3 [2, 4]: A (100)

Cc1cc(Br)ccc1NC(=O)c1c(Br)cccc1C(=O)NC(C)C [compound 311]
Insecticidal effect, Test Example 1 [1, 3]: A (100) | Insecticidal effect, Test Example 3 [2, 4]: D (79-50)

Cc1cc(C(F)(F)C(F)(F)F)ccc1NC(=O)c1c(I)cccc1C(=O)N(C)Cc1ccccc1 [compound 1439]
Insecticidal effect, Test Example 1 [1, 5]: A (100) | Insecticidal effect, Test Example 3 [2, 6]: C (89-80)

Cc1cc(C(F)(C(F)(F)F)C(F)(F)F)ccc1NC(=O)c1c(I)cccc1C(=O)NC(C)c1ccccn1 (stereo not shown) [compound 1774]
Insecticidal effect (Test Example 1), judged from mortality [1]: A (100) | Insecticidal effect (Test Example 3), judged from mortality [2, 4]: A (100)

CCCNC(=O)c1cccc(I)c1C(=O)Nc1ccc(C(F)(F)C(F)(F)F)cc1C [compound 1304]
Insecticidal effect, Test Example 1 [1, 5]: A (100) | Insecticidal effect, Test Example 3 [2, 6]: A (100)

C=CCNC(=O)c1c(C(=O)Nc2ccc(OC(F)F)cc2C)cccc1[N+](=O)[O-] [compound 867]
Insecticidal effect on diamondback moth (Test Example 1), judged grade [1]: A (100) | Insecticidal effect on rice leafroller (Test Example 3), judged grade [2]: C (89-80)

CCN(CC)C(=O)c1c(F)cccc1C(=O)Nc1ccc(OC(F)F)cc1C [compound 1528]
Insecticidal effect (Test Example 1), judged from mortality [1]: A (100) | Insecticidal effect (Test Example 3), judged from mortality [2, 4]: A (100)

CC(C)NC(=O)c1c(I)cccc1C(=O)Nc1c(Cl)ccc2c1OC(F)(F)O2 [compound 1743]
Insecticidal effect (Test Example 1), judged from mortality [1]: A (100) | Insecticidal effect (Test Example 3), judged from mortality [2, 4]: A (100)

CC(C)NC(=O)c1cccc(Cl)c1C(=O)Nc1ccc(Cl)cc1Cl [compound 209]
Insecticidal effect, Test Example 1 [1, 3]: A (100) | Insecticidal effect, Test Example 3 [2, 4]: B (99-90)

CCNC(=O)c1cccc(Cl)c1C(=O)Nc1ccc(OC(F)F)cc1C [compound 9]
Insecticidal effect, Test Example 1 [1, 3]: A (100) | Insecticidal effect, Test Example 3 [2, 4]: A (100)

CC(C)(C)NC(=O)c1ccccc1C(=O)Nc1ccc(C(F)(F)F)cc1 [compound 928]
Insecticidal effect on diamondback moth (Test Example 1), judged grade [1]: A (100) | Insecticidal effect on rice leafroller (Test Example 3), judged grade [2]: A (100)

Cc1cc(C(F)(F)C(F)(F)C(F)(F)C(F)(F)C(F)(F)C(F)(F)F)ccc1NC(=O)c1c(Cl)cccc1C(=O)NC(C)C [compound 226]
Insecticidal effect, Test Example 1 [1, 3]: A (100) | Insecticidal effect, Test Example 3 [2, 4]: A (100)

COCOc1ccc(NC(=O)c2ccccc2C(=O)NC(C)C)c(C)c1 [compound 69]
Insecticidal effect, Test Example 1 [1, 3]: A (100) | Insecticidal effect, Test Example 3 [2, 4]: A (100)

Cc1ccc(Cl)cc1NC(=O)c1ccc2ccccc2c1C(=O)NC(C)C [compound 821]
Insecticidal effect on diamondback moth (Test Example 1), judged grade [1]: A (100) | Insecticidal effect on rice leafroller (Test Example 3), judged grade [2]: A (100)

CCN(Cc1ccccc1)C(=O)c1c(Cl)cccc1C(=O)Nc1ccc(C(F)(F)C(F)(F)F)cc1C [compound 1457]
Insecticidal effect (Test Example 1), judged from mortality [1]: A (100) | Insecticidal effect (Test Example 3), judged from mortality [2, 4]: A (100)

Cc1cc(Br)ccc1NC(=O)c1c(Cl)cccc1C(=O)NC(C)C [compound 216]
Insecticidal effect, Test Example 1 [1, 3]: A (100) | Insecticidal effect, Test Example 3 [2, 4]: A (100)

CCN(CC)C(=O)c1c(C(=O)Nc2ccc(Cl)cc2C)cccc1[N+](=O)[O-] [compound 1135]
Insecticidal effect, Test Example 1 [1, 5]: A (100) | Insecticidal effect, Test Example 3 [2, 6]: A (100)

Cc1cc(C(F)(F)C(F)(F)F)ccc1NC(=O)c1ccccc1C(=O)NC(C)(C)CO [compound 1381]
Insecticidal effect, Test Example 1 [1, 5]: A (100) | Insecticidal effect, Test Example 3 [2, 6]: C (89-80)

Cc1cc(C(F)(F)C(F)(F)F)ccc1NC(=O)c1cccc(Cl)c1C(=O)NC1CCCO1 (stereo not shown) [compound 1392]
Insecticidal effect, Test Example 1 [1, 5]: A (100) | Insecticidal effect, Test Example 3 [2, 6]: A (100)

CC(C)NC(=O)c1cccc(F)c1C(=O)Nc1ccc2c(c1)OCO2 [compound 580]
Insecticidal effect on diamondback moth (Test Example 1), judged grade [1]: A (100) | Insecticidal effect on rice leafroller (Test Example 3), judged grade [2]: A (100)

CC(C)NC(=O)c1c(Cl)cccc1C(=O)Nc1ccc(SC(F)F)cc1 [compound 98]
Insecticidal effect, Test Example 1 [1, 3]: A (100) | Insecticidal effect, Test Example 3 [2, 4]: C (89-80)

Cc1cc(C(F)(F)C(F)(F)F)ccc1NC(=O)c1cccc(Cl)c1C(=O)NCc1cccnc1 [compound 1419]
Insecticidal effect, Test Example 1 [1, 5]: A (100) | Insecticidal effect, Test Example 3 [2, 6]: A (100)

CC(C)NC(=O)c1c(F)cccc1C(=O)Nc1ccc(C(F)(F)C(F)(F)C(F)(F)C(F)(F)F)cc1 [compound 472]
Insecticidal effect on diamondback moth (Test Example 1), judged grade [1]: A (100) | Insecticidal effect on rice leafroller (Test Example 3), judged grade [2]: B (99-90)

COc1ccccc1CNC(=O)c1c(Cl)cccc1C(=O)Nc1ccc(C(F)(F)C(F)(F)F)cc1C [compound 1343]
Insecticidal effect, Test Example 1 [1, 5]: A (100) | Insecticidal effect, Test Example 3 [2, 6]: A (100)

CC(C)NC(=O)c1cccc(F)c1C(=O)Nc1ccc(C(F)(F)C(F)(F)F)cc1Cl [compound 1517]
Insecticidal effect (Test Example 1), judged from mortality [1]: A (100) | Insecticidal effect (Test Example 3), judged from mortality [2, 4]: A (100)

CC(C)NC(=O)c1ccccc1C(=O)Nc1ccc([S+]([O-])C(F)(F)F)cc1 (stereo not shown) [compound 999]
Insecticidal effect, Test Example 1 [1, 5]: A (100) | Insecticidal effect, Test Example 3 [2, 6]: A (100)

Cc1cc(Oc2ncc(C(F)(F)F)cc2Cl)ccc1NC(=O)c1cccc([N+](=O)[O-])c1C(=O)NC(C)C [compound 729]
Insecticidal effect on diamondback moth (Test Example 1), judged grade [1]: A (100) | Insecticidal effect on rice leafroller (Test Example 3), judged grade [2]: A (100)

CCNC(=O)c1cccc(I)c1C(=O)Nc1ccc(OC(F)(F)C(F)F)cc1C [compound 1057]
Insecticidal effect, Test Example 1 [1, 5]: A (100) | Insecticidal effect, Test Example 3 [2, 6]: A (100)

CC(C)NC(=O)c1c(I)cccc1C(=O)Nc1ccc2c(c1)OC(F)(F)C2(F)F [compound 1620]
Insecticidal effect (Test Example 1), judged from mortality [1]: A (100) | Insecticidal effect (Test Example 3), judged from mortality [2, 4]: A (100)

Cc1cc(OC(F)F)ccc1NC(=O)c1cccc([N+](=O)[O-])c1C(=O)NCCF [compound 863]
Insecticidal effect on diamondback moth (Test Example 1), judged grade [1]: A (100) | Insecticidal effect on rice leafroller (Test Example 3), judged grade [2]: B (99-90)

Cc1cc(Cl)ccc1NC(=O)c1cccc(SC(C)C)c1C(=O)NC(C)C [compound 788]
Insecticidal effect on diamondback moth (Test Example 1), judged grade [1]: C (89-80) | Insecticidal effect on rice leafroller (Test Example 3), judged grade [2]: C (89-80)

Cc1cc(OCc2ccc(Cl)cc2)ccc1NC(=O)c1ccccc1C(=O)NC(C)C [compound 76]
Insecticidal effect, Test Example 1 [1, 3]: C (89-80) | Insecticidal effect, Test Example 3 [2, 4]: B (99-90)

Cc1ccc(Cl)cc1NC(=O)c1ccccc1C(=O)NC(C)C [compound 51]
Insecticidal effect, Test Example 1 [1, 3]: A (100) | Insecticidal effect, Test Example 3 [2, 4]: A (100)

CC(C)NC(=O)c1cccc(Cl)c1C(=O)Nc1ccc(OC(F)(F)F)cc1Cl [compound 234]
Insecticidal effect, Test Example 1 [1, 3]: A (100) | Insecticidal effect, Test Example 3 [2, 4]: A (100)

Cc1cc2oc(C(F)(F)F)nc2cc1NC(=O)c1cccc(I)c1C(=O)NC(C)C [compound 1641]
Insecticidal effect (Test Example 1), judged from mortality [1]: A (100) | Insecticidal effect (Test Example 3), judged from mortality [2, 4]: A (100)

CC(C)NC(=O)c1cccc(I)c1C(=O)Nc1ccc(OC(F)(F)F)cc1Br [compound 466]
Insecticidal effect on diamondback moth (Test Example 1), judged grade [1]: A (100) | Insecticidal effect on rice leafroller (Test Example 3), judged grade [2]: A (100)

Cc1ccc(NC(=O)c2c(Br)cccc2C(=O)NC(C)C)c(C)c1OC(F)F [compound 320]
Insecticidal effect, Test Example 1 [1, 3]: A (100) | Insecticidal effect, Test Example 3 [2, 4]: D (79-50)

CCC(O)CNC(=O)c1c(Cl)cccc1C(=O)Nc1ccc(C(F)(F)C(F)(F)F)cc1C (stereo not shown) [compound 1318]
Insecticidal effect, Test Example 1 [1, 5]: A (100) | Insecticidal effect, Test Example 3 [2, 6]: A (100)

Cc1cc(C(F)(F)C(F)(F)F)ccc1NC(=O)c1c(I)cccc1C(=O)NC(C)c1ccccn1 (stereo not shown) [compound 1778]
Insecticidal effect (Test Example 1), judged from mortality [1]: A (100) | Insecticidal effect (Test Example 3), judged from mortality [2, 4]: A (100)

CC(C)NC(=O)c1cccc(Br)c1C(=O)Nc1ccc2c(c1)OCO2 [compound 337]
Insecticidal effect, Test Example 1 [1, 3]: A (100) | Insecticidal effect, Test Example 3 [2, 4]: A (100)

CCCCc1cc(I)ccc1NC(=O)c1cccc(I)c1C(=O)NC(C)C [compound 966]
Insecticidal effect, Test Example 1 [1, 5]: A (100) | Insecticidal effect, Test Example 3 [2, 6]: B (99-90)

Cc1cc(OC(F)(F)C(F)F)ccc1NC(=O)c1c(F)cccc1C(=O)NC(C)C [compound 566]
Insecticidal effect on diamondback moth (Test Example 1), judged grade [1]: A (100) | Insecticidal effect on rice leafroller (Test Example 3), judged grade [2]: B (99-90)

CC(C)NC(=O)c1cccc(I)c1C(=O)Nc1cccc(C(F)(F)F)c1 [compound 414]
Insecticidal effect, Test Example 1 [1, 3]: A (100) | Insecticidal effect, Test Example 3 [2, 4]: A (100)

CC(C)NC(=O)c1c(C(=O)Nc2ccc(C(F)(F)C(F)(F)C(F)(F)C(F)(F)F)cc2)cccc1[N+](=O)[O-] [compound 611]
Insecticidal effect on diamondback moth (Test Example 1), judged grade [1]: A (100) | Insecticidal effect on rice leafroller (Test Example 3), judged grade [2]: A (100)

CCN(CC)C(=O)c1cc(Cl)cc(I)c1C(=O)Nc1ccc(C(F)(F)C(F)(F)F)cc1C [compound 1281]
Insecticidal effect, Test Example 1 [1, 5]: A (100) | Insecticidal effect, Test Example 3 [2, 6]: A (100)

Cc1cc(C(F)(F)C(F)(F)F)ccc1NC(=O)c1cccc(Cl)c1C(=O)NCc1ccccc1C(F)(F)F [compound 1523]
Insecticidal effect (Test Example 1), judged from mortality [1]: A (100) | Insecticidal effect (Test Example 3), judged from mortality [2, 4]: A (100)

CCCNC(=O)c1c(C(=O)Nc2ccc(OC(F)F)cc2C)cccc1[N+](=O)[O-] [compound 17]
Insecticidal effect, Test Example 1 [1, 3]: A (100) | Insecticidal effect, Test Example 3 [2, 4]: D (79-50)
